Patent US20180251431A1 (VERTEX PHARMACEUTICALS INCORPORATED, priority 2016, published 2018)
Where two headings read alike, the source gives them in different places.

Test system: HEK293 cells
Experiment: HEK293 VLCFA-LPC IC50 determination (13C-labeled C26:0 LPC by UHPLC/MS)
Assay type: cell-based, human
Method: HEK293 cells were treated with compounds, such as those listed in Tables A-E of Example 1, using the representative manual protocols described below. The protocols below were also adapted to a semi-automated protocol using standard methods in the art.
Cell Culture Growth Conditions:
HEK293 cells were maintained in FreeStyle F17 media (Gibco # A13835) supplemented with PenStrep (1%, Gibco #15070-063), Glutamax (2%, Gibco #35050-061), and Pluronic (0.1%, Gibco #24040-032) (“supplemented media”). Suspension cultures were grown in disposable Erlenmeyer flasks at about 120 rpm, 37° C., 5% CO2, and 80% humidity. Cell densities were kept between about 0.5 and 3 million cells per mL, in about 50-200 mL per flask.
Treatment of Cells with Compounds Provided Herein:
The cells were treated with compounds using either a total of 900 uL cell media volume (high-volume assay) or a total of 200 uL cell media volume (low-volume assay). In the high volume assay, 450 μL of supplemented media plus 13C-acetate (1.0 mg/mL, Sigma Aldrich #282014) were added to 0.5 μL of a compound (such as those in Tables A-E) in DMSO in a polypropylene v-bottom plate (Costar #3363) in 1 of 3 dilution schemes. The contents of each well were mixed and transferred to a sterile polypropylene deep-well v-bottom plate (Costar #3960). 450 μL of cultured HEK293 cells in supplemented media at a density of 1.0 million cells/mL was added to each well. In the low volume assay, 100 μL of supplemented media plus 13C-acetate (1.0 mg/mL, Sigma Aldrich #282014) were added to either 0.1 μL or 1.0 uL of a compound (such as those in Tables A-E) in DMSO in a polypropylene v-bottom plate (Costar #3363) in 1 of 3 dilution schemes. 100 μL of cultured HEK293 cells in supplemented media at a density of 1.0 million cells/mL was added to each well. The high volume and low volume plates were sealed with either AirPore Tape Sheets (Qiagen #19571) or Duetz plate covers to control evaporation and placed into a shaking incubator at 225 rpm, 37° C., 5% CO2, and 80% humidity for 48 hours. For both the high and low volume assays the 3 dilution schemes used were as follows:
Following incubation, treated cells were harvested by centrifugation at 1690×g for 10 minutes. In the high volume assay 200 uL treated cells were transferred to a polypropylene v-bottom plate (Costar #3363) prior to centrifugation. In the low volume assay the incubation plate was centrifuged directly, without a transfer step. The supernatant was then discarded and the analytes were extracted using 1 of 2 different extraction schemes. In the first scheme, the cell pellet was visibly broken up by mixing the cell pellet up and down in 100 μL of hexane/isopropanol (60:40) 20 times. The resulting mixture was transferred to a 0.45 μm Durapore membrane (Millipore #MSH VN4510) atop a polypropylene v-bottom plate (Costar #3363) and filtered by centrifugation at 1690×g for 5 minutes. 120 μL of n-butanol containing 10 nM C13:0 lysophosphatidylcholine was added to the filtrate as an injection control standard, then the entire volume was transferred to a new Durapore membrane/v-bottom plate. In the second scheme, the cell pellet was visibly broken up by mixing the cell pellet up and down in 180 μL of methanol containing 10 nM C13:0 lysophosphatidylcholine 20 times. The resulting mixture was transferred to a 0.45 μm Durapore membrane (Millipore #MSH VN4510) atop a polypropylene v-bottom plate and filtered by centrifugation at 1690×g for 5 minutes. In both schemes, the plates were then sealed with pierceable capmats (Micronic MP53017) and stored at −20 OC until analyzed.
UHPLC/Mass Spectrometry Readout:
The filtered organic extraction was analyzed with a 1290 Agilent Infinity Series UHPLC coupled to an ABI Sciex QTrap 6500 mass spectrometer. […]

[1] = Homo sapiens, HEK293, HEK293 cells, average of one or more replicates, read-out: Average HEK293 IC50
[2] = Homo sapiens, HEK293, 48 h, average of one or more replicates, 13C-labeled C26:0 LPC, 48 hours, read-out: Average HEK293 IC50
[3] = average of one or more replicates, 13C-labeled C26:0 LPC, 48 hours, read-out: Average HEK293 IC50

## O=C(Nc1ccn(-c2ccccc2)n1)C1(c2ccccc2)CC1(F)F (racemic) [Compound 143, 2,2-difluoro-1-phenyl-N-(1-phenyl-1H-pyrazol-3-yl)cyclopropane-1-carboxamide]
[1]
  IC50: 140 nM

## O=C(Nc1ccn(-c2ccnc(F)c2)n1)C1(c2ccccc2)CC1(F)F (racemic) [Compound 169, 2,2-difluoro-N-(1-(2-fluoropyridin-4-yl)-1H-pyrazol-3-yl)-1-phenylcyclopropane-1-carboxamide]
Homo sapiens, HEK293, read-out: Average HEK293 IC50
  IC50: 52 nM

## O=C(Nc1ccn(-c2ccncc2)n1)C1(c2ccccc2)CC1(F)F (racemic) [Compound 419, 2,2-difluoro-1-phenyl-N-(1-(pyridin-4-yl)-1H-pyrazol-3-yl)cyclopropane-1-carboxamide]
[1]
  IC50: 240 nM

## O=C(Nc1ccn(-c2cncc(F)c2)n1)C1(c2ccccc2)CC1(F)F (racemic) [Compound 420, 2,2-difluoro-N-(1-(5-fluoropyridin-3-yl)-1H-pyrazol-3-yl)-1-phenylcyclopropane-1-carboxamide]
[1]
  IC50: 100 nM

## O=C(Nc1ccn(-c2cccc(Cl)c2)n1)C1(c2ccccc2)CC1(F)F (racemic) [Compound 421, N-(1-(3-chlorophenyl)-1H-pyrazol-3-yl)-2,2-difluoro-1-phenylcyclopropane-1-carboxamide]
[1]
  IC50: 470 nM

## O=C(Nc1ccn(-c2cncc(F)c2)n1)C1(c2ncccc2F)CC12CC2 (racemic) [Compound 473, 1-(3-fluoropyridin-2-yl)-N-(1-(5-fluoropyridin-3-yl)-1H-pyrazol-3-yl)spiro[2.2]pentane-1-carboxamide]
[1]
  IC50: 430 nM

## O=C(Nc1ccn(-c2ccccc2)n1)C1(c2ccccc2)CC1(F)F (single isomer, unassigned) [Compound 366]
[2]
  IC50: 210 nM

## O=C(Nc1ccn(-c2ccccc2)n1)C1(c2ccccc2)CC1(F)F (single isomer, unassigned) [Compound 367]
[3]
  IC50: 110 nM

## O=C(Nc1ccn(-c2ccnc(F)c2)n1)C1(c2ccccc2)CC1(F)F (single isomer, unassigned) [Compound 368]
[2]
  IC50: 32 nM

## O=C(Nc1ccn(-c2ccnc(F)c2)n1)C1(c2ccccc2)CC1(F)F (single isomer, unassigned) [Compound 369]
[3]
  IC50: 36 nM

## O=C(Nc1ccn(-c2ccnc(F)c2)n1)C1(c2ccccc2)CC1(Cl)Cl (single isomer, unassigned) [Compound 370]
[2]
  IC50: 170 nM

## O=C(Nc1ccn(-c2ccnc(F)c2)n1)C1(c2ccccc2)CC1(Cl)Cl (single isomer, unassigned) [Compound 371]
[2]
  IC50: 720 nM

## O=C(Nc1ccn(-c2ccncc2)n1)C1(c2ccccc2)CC1(F)F (single isomer, unassigned) [Compound 433]
[2]
  IC50: 320 nM

## O=C(Nc1ccn(-c2ccncc2)n1)C1(c2ccccc2)CC1(F)F (single isomer, unassigned) [Compound 434]
[3]
  IC50: 340 nM

## O=C(Nc1ccn(-c2cncc(F)c2)n1)C1(c2ccccc2)CC1(F)F (single isomer, unassigned) [Compound 435]
[3]
  IC50: 60 nM

## O=C(Nc1ccn(-c2cncc(F)c2)n1)C1(c2ccccc2)CC1(F)F (single isomer, unassigned) [Compound 436]
[3]
  IC50: 180 nM

## O=C(Nc1ccn(-c2cccc(Cl)c2)n1)C1(c2ccccc2)CC1(F)F (single isomer, unassigned) [Compound 437]
[3]
  IC50: 2400 nM

## O=C(Nc1ccn(-c2cccc(Cl)c2)n1)C1(c2ccccc2)CC1(F)F (single isomer, unassigned) [Compound 438]
[3]
  IC50: 540 nM

## O=C(Nc1ccn(-c2cncc(F)c2)n1)[C@]1(c2ncccc2F)CC12CC2 (single isomer, unassigned) [Compound 499]
[2]
  IC50: 740 nM

## O=C(Nc1ccn(-c2cncc(F)c2)n1)[C@@]1(c2ncccc2F)CC12CC2 (single isomer, unassigned) [Compound 500]
[2]
  IC50: 430 nM

## O=C(Cc1ccccc1F)Nc1ccn(-c2ccccc2)n1 [Compound 1, 2-(2-fluorophenyl)-N-(1-phenylpyrazol-3-yl)acetamide]
[1]
  IC50: 68 nM

## O=C(Nc1ccn(-c2ccccc2)n1)C1(c2ccccc2)CC1 [Compound 2, 1-phenyl-N-(1-phenyl-1H-pyrazol-3-yl)cyclopropane-1-carboxamide]
[1]
  IC50: 20 nM

## O=C(Cc1ccccc1F)Nc1ccn(-c2ccnc(Cl)c2)n1 [Compound 4, N-[1-(2-chloro-4-pyridyl)pyrazol-3-yl]-2-(2-fluorophenyl)acetamide]
[1]
  IC50: 650 nM

## O=C(Cc1ccsc1)Nc1ccn(-c2ccccc2)n1 [Compound 5, N-(1-phenylpyrazol-3-yl)-2-(3-thienyl)acetamide]
[1]
  IC50: 410 nM

## O=C(Cc1ccc(Cl)cc1)Nc1ccn(-c2ccccc2)n1 [Compound 6, 2-(4-chlorophenyl)-N-(1-phenylpyrazol-3-yl)acetamide]
[1]
  IC50: > 5000 nM

## COc1cccc(CC(=O)Nc2ccn(-c3ccccc3)n2)c1OC [Compound 7, 2-(2,3-dimethoxyphenyl)-N-(1-phenylpyrazol-3-yl)acetamide]
[1]
  IC50: > 5000 nM

## COc1cc(CC(=O)Nc2ccn(-c3ccccc3)n2)ccc1O [Compound 9, 2-(4-hydroxy-3-methoxy-phenyl)-N-(1-phenylpyrazol-3-yl)acetamide]
[1]
  IC50: > 5000 nM

## CC(C)c1ccc(CC(=O)Nc2ccn(-c3ccccc3)n2)cc1 [Compound 10, 2-(4-isopropylphenyl)-N-(1-phenylpyrazol-3-yl)acetamide]
[1]
  IC50: 4400 nM

## Cc1ccccc1C1(C(=O)Nc2ccn(-c3ccccc3)n2)CC1 [Compound 12, 1-(o-tolyl)-N-(1-phenylpyrazol-3-yl)cyclopropanecarboxamide]
[1]
  IC50: 130 nM

## O=C(Nc1ccn(-c2ccccc2)n1)C1(c2ccc(F)cc2)CC1 [Compound 13, 1-(4-fluorophenyl)-N-(1-phenylpyrazol-3-yl)cyclopropanecarboxamide]
[1]
  IC50: 82 nM

## O=C(Cc1ccccc1F)Nc1ccn(-c2ccncc2)n1 [Compound 14, 2-(2-fluorophenyl)-N-[1-(4-pyridyl)pyrazol-3-yl]acetamide]
[1]
  IC50: 580 nM

## O=C(Cc1ccccc1F)Nc1ccn(-c2cncnc2)n1 [Compound 15, 2-(2-fluorophenyl)-N-(1-pyrimidin-5-ylpyrazol-3-yl)acetamide]
[1]
  IC50: 1000 nM

## O=C(Cc1ccc(F)cc1)Nc1ccn(-c2ccccc2)n1 [Compound 16, 2-(4-fluorophenyl)-N-(1-phenylpyrazol-3-yl)acetamide]
[1]
  IC50: 330 nM

## O=C(Cc1cc(F)c(F)c(F)c1)Nc1ccn(-c2ccccc2)n1 [Compound 17, N-(1-phenylpyrazol-3-yl)-2-(3,4,5-trifluorophenyl)acetamide]
[1]
  IC50: > 5000 nM

## O=C(Cc1ccc(F)cc1F)Nc1ccn(-c2ccccc2)n1 [Compound 18, 2-(2,4-difluorophenyl)-N-(1-phenylpyrazol-3-yl)acetamide]
[1]
  IC50: 260 nM

## O=C(Nc1ccn(-c2ccccc2)n1)C1(c2cccc(Cl)c2)CC1 [Compound 19, 1-(3-chlorophenyl)-N-(1-phenylpyrazol-3-yl)cyclopropanecarboxamide]
[1]
  IC50: 250 nM

## C[C@H](C(=O)Nc1ccn(-c2ccccc2)n1)c1ccccc1 [Compound 20, (2S)-2-phenyl-N-(1-phenylpyrazol-3-yl)propanamide]
[1]
  IC50: 26 nM

## O=C(Nc1ccn(-c2ccccc2)n1)C1(c2cccc(F)c2)CC1 [Compound 21, 1-(3-fluorophenyl)-N-(1-phenylpyrazol-3-yl)cyclopropanecarboxamide]
[1]
  IC50: 150 nM
